This is an account of results in US20090312437A1, “Anthraquinones and Analogs from Rhuem palmatum for Treatment of Estrogen Receptor Beta-Mediated Conditions” (Bionovo, Inc., A Delaware Corporation, priority 2008, published 2009).

The conditions of data set [1]: five years of therapy; cited from earlier work.
The conditions of data set [2]: women at high risk for breast cancer; cited from earlier work.
In data set [3] the target is T1, ERβ (Homo sapiens, UniProt Q92731). Briefly: ER binding curves (ERβ compared with ERα).
The target in data set [4] is T1, ERβ. Description: Repression of TNF-α activation of TNF-RE tkLuc in U2OS cells with ERβ. The data set is classed as cell-based. The arrangement: expressed in transfected cells; host or cells: U2OS (human osteosarcoma).
Data set [5] addresses T1, ERβ. Briefly: ERE-tk-Luc luciferase transient transfection assay in U2OS cells with ERβ.
Description: (§2) The isolated and two purchased (4, 5) anthraquinones, were tested for their ERα and ERβ activities using transient transfection assays in the human U2OS bone cell line with an estrogen response element linked to the luciferase reporter gene (ERE-tkLuc).
(§3) U2OS osteosarcoma cells were cotransfected with a classic ERE upstream of a minimal thymidine kinase (tk) promoter (ERE-tk-Luc) and expression vectors for human ERα or ERβ.
Data set [6] has as its target T2, ERα (Homo sapiens, UniProt P03372).
T2 construct: expressed in transfected cells; host or cells: U2OS (human osteosarcoma)
T2 sequence (P03372 1-595): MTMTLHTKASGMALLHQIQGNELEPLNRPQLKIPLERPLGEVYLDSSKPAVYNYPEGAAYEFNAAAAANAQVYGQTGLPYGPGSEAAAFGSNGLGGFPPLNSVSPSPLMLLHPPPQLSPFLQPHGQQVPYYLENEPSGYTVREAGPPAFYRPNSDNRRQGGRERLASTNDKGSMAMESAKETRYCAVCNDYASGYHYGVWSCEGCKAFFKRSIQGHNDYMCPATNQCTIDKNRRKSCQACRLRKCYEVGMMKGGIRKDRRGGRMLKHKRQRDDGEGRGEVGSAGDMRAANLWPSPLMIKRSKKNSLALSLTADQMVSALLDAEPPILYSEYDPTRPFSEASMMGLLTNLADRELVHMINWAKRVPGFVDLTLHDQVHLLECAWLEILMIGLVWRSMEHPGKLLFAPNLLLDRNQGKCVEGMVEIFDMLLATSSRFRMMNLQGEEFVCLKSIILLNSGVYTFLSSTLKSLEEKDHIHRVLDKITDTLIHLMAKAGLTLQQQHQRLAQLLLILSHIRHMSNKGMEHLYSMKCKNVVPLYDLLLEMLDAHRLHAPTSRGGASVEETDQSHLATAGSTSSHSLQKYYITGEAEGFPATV
Description: ERE-tk-Luc luciferase transient transfection assay in U2OS cells with ERα. The settings on record: ERα expression vector. Format: cell-based.
Description: as §2, §3

Data set [7] concerns MCF-7 breast cancer cells. Briefly: MCF-7 kidney capsule graft tumor formation in nude mice. The settings on record: MCF-7 grafts, 28 days, subcutaneous Alzet pump, 2 mg/200 μL for 6, 360 μg/200 μL for estradiol. The data set is classed as in vivo, CD-1/Nude female mice. The protocol:
(§1) The effects of 6 were tested in vivo on breast cancer tumor formation and uterine proliferation. CD-1/Nude female mice, 40-50 days old at time of grafting were selected. Each mouse received 2 grafts per kidney, 4 grafts total with MCF-7 breast cancer cells in 25 μL collagen per graft. Compound 6 was delivered subcutaneously with a Alzet Osmotic pump filled with 200 μL of 6 for 28 days. […] At the end of 28 days of treatment, all grafts and uteri were isolated, pictures taken, weighed, and fixed in formalin.

Data set [8] relates to uterine proliferation. Description: Uterine proliferation in nude mice, 28 days subcutaneous osmotic pump. The data set is classed as in vivo, CD-1/Nude female mice. The settings on record: subcutaneous Alzet pump, 2 mg/200 μL for 6, 360 μg/200 μL for estradiol. The procedure:
as §1

T1 sequence (Q92731 whole entry): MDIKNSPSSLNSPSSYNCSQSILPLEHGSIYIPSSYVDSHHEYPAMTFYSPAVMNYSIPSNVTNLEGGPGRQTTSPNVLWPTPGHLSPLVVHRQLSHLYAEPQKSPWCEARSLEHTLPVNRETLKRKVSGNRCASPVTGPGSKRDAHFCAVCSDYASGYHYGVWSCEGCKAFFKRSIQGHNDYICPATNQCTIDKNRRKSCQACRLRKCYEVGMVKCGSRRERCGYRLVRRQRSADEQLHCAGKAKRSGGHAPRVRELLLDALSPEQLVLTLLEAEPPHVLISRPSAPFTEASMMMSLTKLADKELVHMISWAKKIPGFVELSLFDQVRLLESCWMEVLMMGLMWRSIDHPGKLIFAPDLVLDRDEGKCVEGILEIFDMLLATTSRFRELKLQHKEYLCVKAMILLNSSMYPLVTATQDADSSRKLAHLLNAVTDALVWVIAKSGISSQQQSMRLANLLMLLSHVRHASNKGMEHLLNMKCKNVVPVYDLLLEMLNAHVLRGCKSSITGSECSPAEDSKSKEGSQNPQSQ

In the case of `CC/C(=C(\c1ccccc1)c1ccc(OCCN(C)C)cc1)c1ccccc1` [tamoxifen], in data set [1], the “reduction of mortality from breast cancer” value is listed as 22% and the “reduction of the risk of recurrences” value is recorded as 42%. Also, the “reduction of the risk of primary invasive breast cancer” value in data set [2] was 49%.

Take emodin [compound 1]: the “ERβ-binding curve as compared to the ERα-binding curve” value in data set [3] was “very similar”. Besides, in data set [4], the “repression of TNF-α activation of TNF-RE in the presence of ERβ” value is “produced repression”. Besides, in data set [5] (listed as Emodin), the “ERβ-activation of ERE-tk-luc in the presence of compound and raloxifene” value (shortened to “ERβ-activation … of compound and raloxifene”) is recorded as “attenuated”; the “ERβ-activation of ERE-tk-luc in the presence of compound and tamoxifen” value (“ERβ-activation … of compound and tamoxifen” for short) is recorded as “attenuated”. Moreover, in data set [5] (listed as emodin), the “ERβ-activation … of compound and raloxifene” value is given as “repressed”; the “ERβ-activation … of compound and tamoxifen” value is recorded as “repressed”.

For `O=C1c2c(O)c(O)c(O)c(O)c2C(=O)c2c(O)c(O)c(O)c(O)c21` [compound 6, octahydroxyanthraquinone], the “activation of ERE-tk-Luc in the presence of ERα” value in data set [6] is on record as “no effect on ERα”. The “tumor formation / proliferation in kidney capsule grafts as compared to control” value is reported as “does not increase breast cancer tumor formation” in data set [7] and “suppresses tumor proliferation” in data set [7] (listed as octahydroxyanthraquinone).

As for `C[C@]12CC[C@@H]3c4ccc(O)cc4CC[C@H]3[C@@H]1CC[C@@H]2O` [estradiol, reference compound], in data set [8], the “uterine proliferation as compared to control” value was “stimulates uterine proliferation”. Further, in data set [4] (data not shown), the “repression of TNF-α activity on ERβ” value worked out at 100%.

In the case of aloe-emodin [compound 2], the “repression of TNF-α activation of TNF-RE in the presence of ERβ” value in data set [4] is listed as “produced repression”. For the same molecule, in data set [5], the “ERβ-activation … of compound and raloxifene” value is “attenuated”; the “ERβ-activation … of compound and tamoxifen” value is recorded as “attenuated”.
